For this assay, the target named is T1, AR protein (Homo sapiens, UniProt P10275).
T1 sequence (P10275 1-920): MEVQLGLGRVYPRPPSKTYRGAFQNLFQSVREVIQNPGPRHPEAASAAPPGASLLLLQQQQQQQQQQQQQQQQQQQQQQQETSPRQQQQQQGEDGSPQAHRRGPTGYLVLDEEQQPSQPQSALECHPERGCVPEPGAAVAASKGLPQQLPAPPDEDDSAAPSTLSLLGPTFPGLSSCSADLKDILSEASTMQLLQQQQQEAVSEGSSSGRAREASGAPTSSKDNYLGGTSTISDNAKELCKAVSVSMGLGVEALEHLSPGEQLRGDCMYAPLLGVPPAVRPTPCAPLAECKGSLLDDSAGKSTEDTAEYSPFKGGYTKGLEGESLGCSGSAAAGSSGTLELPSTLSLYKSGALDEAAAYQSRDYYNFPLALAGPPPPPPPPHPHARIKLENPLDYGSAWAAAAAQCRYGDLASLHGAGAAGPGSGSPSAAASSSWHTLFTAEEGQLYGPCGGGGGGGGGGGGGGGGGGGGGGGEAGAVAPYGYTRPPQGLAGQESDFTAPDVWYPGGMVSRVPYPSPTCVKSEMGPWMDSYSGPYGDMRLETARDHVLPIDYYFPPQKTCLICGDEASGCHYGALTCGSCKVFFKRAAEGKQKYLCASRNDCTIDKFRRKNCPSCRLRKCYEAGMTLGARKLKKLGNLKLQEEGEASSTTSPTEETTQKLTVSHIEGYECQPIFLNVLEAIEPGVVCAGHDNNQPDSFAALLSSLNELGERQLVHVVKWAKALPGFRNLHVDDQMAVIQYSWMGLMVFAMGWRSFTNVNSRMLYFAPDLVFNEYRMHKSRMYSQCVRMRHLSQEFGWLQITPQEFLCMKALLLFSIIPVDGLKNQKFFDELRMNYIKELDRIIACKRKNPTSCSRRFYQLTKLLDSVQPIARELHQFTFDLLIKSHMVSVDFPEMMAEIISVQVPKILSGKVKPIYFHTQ
Put plainly: AR protein degradation. It is filed as cell-based. Particulars: Figure 6D. The method, then:
Figure 6 Mechanism underlying suppression of AR-related functions by oxadiazole derivatives (A–C) Transcriptional activity in reporter assays. PC-3 cells in 24-well plates were transfected as indicated below. After incubation for 16 h, cells were treated with ethanol, 10 nM DHT, or 0.01–10 μM HWC-489 or LHJ-647 for an additional 16 h. Luciferase activity in cell lysates was determined and normalized to protein concentrations. Relative luciferase activity was calculated using the luciferase reporter assay system. (A) PC-3 cells were co-transfected with 350 ng pCDNA3-flag-hAR-N (residues 1–506), 350 ng pCDNA3-hAR-C (residues 556–919), and 300 ng MMTV-Luc plasmids. (B) PC-3 cells were co-transfected with 350 ng GAL4-DBD-3-18, 350 ng pCMX-VP16-AR, and 300 ng pG5-Luc plasmids. (C) PC-3 cells were transfected with 350 ng GAL4-DBD-ARA54C, 350 ng VP16-AR, and 300 ng pG5-Luc plasmids. (D) LHJ-647 promotes AR protein degradation.

Among the data in publication PMC5642495, “Characterization of a novel androgen receptor (AR) coregulator RIPK1 and related chemicals that suppress AR-mediated prostate cancer growth via peptide and chemical screening” (Oncotarget, 2017) are AR protein degradation values, retold here.

The structures appear in SMILES notation.

As to `COc1cccc(Nc2nnc(-c3ccc(N(C)C)cc3)o2)c1` [LHJ-647], the AR protein degradation entry is reported as “promoted AR protein degradation”.
